Series [1] concerns M. tuberculosis H37RV ATCC 27294. The experiment in a line: In vitro growth inhibition assay, BACTEC 460 TB system. The series is classed as cell-based, Mycobacterium tuberculosis.
The test system of series [2] is M. Tuberculosis strain (H37RV). The experiment in a line: In vitro agar dilution assay (MIC, NCCLS-M24-T2). Particulars: for MIC: Mycobacterium tuberculosis, ATCC 27294 / H37Rv, read-out: MIC against M. tuberculosis (H37RV ATCC27294). The series is classed as cell-based, Mycobacterium tuberculosis. (In general: Agar dilution tests growth on a series of plates holding different concentrations.)

In series [3] the test system is M. fortuitum. In words: In vitro agar dilution assay (MIC). The series is classed as cell-based, Mycobacterium fortuitum. Particulars: n = 2 strains tested.
Series [4] relates to M. avium-intracellular Complex. The experiment in a line: In vitro agar dilution assay (MIC). The series is classed as cell-based, Mycobacterium avium-intracellular complex. Particulars: for MIC M. avium-intracellulare Complex (n = 10): n = 10 strains tested.
Series [5] has as its system clinical isolates generally susceptible to common tubercular agents. The experiment in a line: microbe, parasite or virus in culture. The series is classed as cell-based, Mycobacterium tuberculosis. Particulars: for MIC M. tuberculosis Sensitive (n = 20): clinical isolates, n = 20 strains tested.
The test system of series [6] is M. kansasii. In words: In vitro agar dilution assay (MIC). The series is classed as cell-based, Mycobacterium kansasii. The following applies: n = 2 strains tested.
Series [7] relates to M. Tuberculosis strain (H37RV). The following applies: Janssen WO2004/011436; cited from earlier work.
The mark [8] stands for this setting: agar dilution, Middlebrook 7H10.

≈ marks a conversion by molar mass, not a printed value. Read-outs that look alike come from different tables or passages of the source. Some results are limits rather than exact numbers.

What is called melting point is the temperature of the solid-liquid transition.

Turning to `COc1cccc(NC(=O)Nc2ccc3nc(Oc4ccc(F)cc4C(C)O)c(Cc4ccccc4)cc3c2)c1` (stereo not drawn) [Example 26], the “mark “a” at the serial number (99% inhibition at <4 μg/ml), Tables 2-4” value in series [1] was 26a (Compounds marked with “a” have shown 99% inhibition at <4 μg/ml). For the same compound, the “MIC against M. tuberculosis (H37RV ATCC27294)” value (shortened to “MIC against M. tuberculosis”) in series [2] (setting [8]) is less than 3.125 µg/mL. The “MIC M. fortuitum (n = 2)” value in series [3] was less than 4.0 µg/mL. In series [4], the “MIC M. avium-intracellulare Complex (n = 10)” value was less than 4.0 µg/mL. Moreover, in series [5], the “MIC M. tuberculosis Sensitive (n = 20)” value is less than 3.125 µg/mL. Moreover, the “MIC M. kansasii (n = 2)” value in series [6] was less than 4.0 µg/mL.

In the case of `CC(O)c1cc(F)ccc1Oc1nc2ccc(NC(=O)Nc3cccc([N+](=O)[O-])c3)cc2cc1Cc1ccccc1` (stereo not drawn), the melting point was in the range of 217 to 219 °C.

Turning to `COc1nc2ccc(Br)cc2cc1C(Nc1ccc2oc(=O)ccc2c1)c1ccccc1` (racemic), the melting point was 88 to 89 °C.

Consider `ON=C1c2ccccc2-c2c1c(N1CCN(c3ccccn3)CC1)nc1ccc(Br)cc21` [Example 134], for which the “mark “a” at the serial number (99% inhibition at <4 μg/ml), Tables 5A-N, 6-10” value in series [1] was 134a (Compounds marked with “a” have shown 99% inhibition at <4 μg/ml). The “MIC against M. tuberculosis” value in series [2] (setting [8]) was less than 6.25 µg/mL. Besides, in series [3], the “MIC M. fortuitum (n = 2)” value was more than 8.0 µg/mL. Also, in series [4], the “MIC M. avium-intracellulare Complex (n = 10)” value is less than 6.25 µg/mL. In addition, in series [5], the “MIC M. tuberculosis Sensitive (n = 20)” value was less than 6.25 µg/mL. Further, the “MIC M. kansasii (n = 2)” value in series [6] is more than 8.0 µg/mL.

Compound `COC(=O)C(C(=O)N1CCOCC1)C(c1ccccc1)c1cc2cc(Br)ccc2nc1OC` (stereo not drawn) [Example 1] [listing 1 of 2 here] yielded a melting point of 206 to 208 °C.

Take `CC(c1cc(F)ccc1Oc1nc2ccc(-n3cc(-c4ccccc4)nn3)cc2cc1Cc1ccccc1)n1ccnc1` (stereo not drawn) [Example 23]: the “mark “a” at the serial number (99% inhibition at <4 μg/ml), Tables 2-4” value in series [1] is listed as 23a (Compounds marked with “a” have shown 99% inhibition at <4 μg/ml). For the same compound, in series [2] (setting [8]), the “MIC against M. tuberculosis” value is less than 3.125 µg/mL. For the same compound, the “MIC M. fortuitum (n = 2)” value in series [3] was less than 4.0 µg/mL. The “MIC M. avium-intracellulare Complex (n = 10)” value in series [4] is less than 4.0 µg/mL. Besides, the “MIC M. tuberculosis Sensitive (n = 20)” value in series [5] is less than 3.125 µg/mL. Also, the “MIC M. kansasii (n = 2)” value in series [6] was less than 4.0 µg/mL.

Consider `COc1nc2ccc(Br)cc2cc1C(c1ccccc1)[C@@](O)(CCN(C)C)c1cccc2ccccc12` (stereo partly drawn) [Example R207910], for which, in series [7], the “MIC value against the M. Tuberculosis strain (H37RV)” value is 0.07 µg/mL (≈ 0.126 µM).

`COc1nc2ccc(Br)cc2cc1C(c1ccccc1)n1ccnc1` (racemic) registered a melting point of 161 to 162 °C.

For `NNC(=O)c1ccncc1` [Isoniazid, reference compound], the MIC in series [2] (setting [8]) was 0.25 µg/mL (≈ 1.82 µM); in series [3] (Mycolicibacterium fortuitum, read-out: MIC M. fortuitum (n = 2)), more than 16 µg/mL; in series [4] (Mycobacterium, read-out: MIC M. avium-intracellulare Complex (n = 10)), more than 16 µg/mL; in series [5] (Mycobacterium tuberculosis, read-out: MIC M. tuberculosis Sensitive (n = 20)), 0.25 µg/mL (≈ 1.82 µM); in series [6] (Mycobacterium kansasii, read-out: MIC M. kansasii (n = 2)) it was more than 16 µg/mL.

`COC(=O)C(C(=O)N1CCOCC1)C(c1ccccc1)c1cc2cc(Br)ccc2nc1OC` (stereo not drawn) [Example 1] [listing 2 of 2 here] returned a melting point of 187.5 to 189.5 °C.

As to `COc1nc2ccc(Br)cc2cc1C(c1ccccc1)n1cccn1` (racemic), the melting point fell in the range of 142 to 144 °C.

`CC(c1cc(F)ccc1Oc1nc2ccc(-n3cc(-c4ccccc4)nn3)cc2cc1Cc1ccccc1)n1ccnc1` (stereo not drawn) yielded a melting point of 118 to 120 °C.

As for `CC(O)c1cc(F)ccc1Oc1nc2ccc(NC(=O)Nc3cccc([N+](=O)[O-])c3)cc2cc1Cc1ccccc1` (stereo not drawn) [Example 31], the “mark “a” at the serial number (99% inhibition at <4 μg/ml), Tables 2-4” value in series [1] is listed as 31a (Compounds marked with “a” have shown 99% inhibition at <4 μg/ml). In addition, in series [2] (setting [8]), the “MIC against M. tuberculosis” value is less than 3.125 µg/mL. The “MIC M. fortuitum (n = 2)” value in series [3] is more than 8.0 µg/mL. Moreover, the “MIC M. avium-intracellulare Complex (n = 10)” value in series [4] was more than 8.0 µg/mL. Further, the “MIC M. tuberculosis Sensitive (n = 20)” value in series [5] was less than 6.25 µg/mL. The “MIC M. kansasii (n = 2)” value in series [6] is more than 8.0 µg/mL.

`CO[C@H]1/C=C/O[C@@]2(C)Oc3c(C)c(O)c4c(O)c(c(/C=N/N5CCN(C)CC5)c(O)c4c3C2=O)NC(=O)/C(C)=C\C=C\[C@H](C)[C@H](O)[C@@H](C)[C@@H](O)[C@@H](C)[C@H](OC(C)=O)[C@@H]1C` [Refampin, Rifampicin, reference compound]: the MIC in series [2] was determined as 0.25 µg/mL (≈ 0.304 µM).

`COc1nc2ccc(Br)cc2c2c1C(C)(OCC(O)Cn1ccc(-c3ccc(C(F)(F)F)cc3)n1)c1ccccc1-2` (stereo not drawn) had a melting point of 65 to 67 °C.

The values above are taken from patent US20110059948A1, “QUINOLINE, NAPHTHALENE AND CONFORMATIONALLY CONSTRAINED QUINOLINE OR NAPHTHALENE DERIVATIVES AS ANTI-MYCOBACTERIAL AGENTS” (priority 2008, published 2011).
